Test results as given in PubChem BioAssay AID1918952 (Molecular Pharmacology Branch, DTP, NCI, 2023).
Values joined by “and” are separate entries in the source; they are usually repeats but may differ in a detail not shown here. Equal entries are not always repeated.

Test system: LG0703-F948-PDC complex spheroid viability
Assay: Anticancer human tumor LG0703-F948-PDC patient-derived lung adenocarcinoma cell line growth inhibition
Conditions: for viability, T/C: stronger effect = lower value
Description: Multicellular complex tumor spheroid response to LSD1 Inhibitor Iadademstat in combination with a variety of drugs and investigational agents in selected tumor cell lines
The current study was undertaken to assess response to LSD1 inhibitors in combination with standard-of-care drugs and investigational agents in solid tumor complex spheroid models as well as in the K-562 leukemia. Complex spheroids include a stromal component modeled by human endothelial cells (HUVEC) and fibroblasts modeled by human mesenchymal stem cells (MSCs). The concentration ranges selected for each drug and investigational agent were based upon clinically achievable concentrations if the clinical Cmax of the agent was known.
Compounds. The drugs and investigational agents used in this study are listed on Table 1. All of the agents used, including staurosporine (NSC755774) and gemcitabine (NSC613327), were obtained from the Developmental Therapeutics Program, NCI. FDA-approved anticancer drugs are available from the NCI at http://dtp.nci.nih.gov/branches/dscb/oncology_drugset_explanation.html. Drugs and investigational agents were >95% pure by proton nuclear magnetic resonance (NMR) and liquid chromatography/mass spectrometry (LC/MS). Stock solutions were prepared at 400x in DMSO, stored at -70 degrees C, and diluted in fresh medium prior to their use. The final concentration of DMSO in cell culture wells never exceeded 0.25% (v/v). The FDA-approved anticancer drug set is available from the Developmental Therapeutics Program at https://dtp.cancer.gov/organization/dscb/obtaining/available_plates.htm. All drugs and investigational agents were tested over a range starting from a high concentration at or near the clinical Cmax and decreasing in half-log increments. If the clinical Cmax for an agent had not been determined, the highest concentration tested was 10 microM.
Cell Lines. The patient-derived cancer cell (PDC) lines: 292921-168-R-J2-PDC, K24384-001-R-PDC, and 521955-158-R2-J5-PDC pancreatic carcinomas, 556581-035-R-J1 ovarian carcinoma, 324938-238-R-J1-PDC, 855422-203-R-J1-PDC and 883617-216-R-J1-PDC urothelial bladder carcinomas, 743489-274-T-PDC renal cell carcinoma, 138582-R-J1 Merkel cell tumor, K60290-347-R-J1 and K57222-313-R-J1-PDC glioblastomas, 653999-131-R-J2-PDC, LG0703-F948-PDC, and 349418-098-R-PDC non-small cell lung carcinomas, 885512-296-R-J2-PDC, 171881-019-R-J1-PDC breast carcinomas and 186277-243-T-J2-PDC and 233499-124-R-J2-PDC colon carcinomas were obtained from the NCI Patient-Derived Models Repository (PDMR, https://pdmr.cancer.gov). The established cell lines NCI/ADR-RES (RRID:CVCL_14520 and OVCAR-5 (RRID:CVCL_1628) ovarian carcinomas, 786-O (RRID:CVCL_1051) and A498 (RRID:CVCL_A498) renal cell carcinoma, NCI-H211 (ATCC, cat. CRL-5824; RRID:CVCL_1529), NCI-H196 (ATCC, cat. CRL-5823, RRID:CVCL_1509), SW 1271 (ATCC, cat. CRL-2177, RRID:CVCL_1716) and NCI-H1876 (ATCC, cat. CRL-5902, RRID:CVCL_1503) small cell lung carcinomas, MDA-MB-231 (RRID:CVCL_0062) and MDA-MB-468 (RRID:CVCL_0419)breast carcinomas (10-12). Pooled donor human umbilical vein endothelial cells (HUVEC, Lonza, cat. CC-2519) and human mesenchymal stem cells (hMSC, Lonza, cat. PT-2501) were purchased from Lonza (Walkersville, MD).
Cell Culture. All cells were maintained in an incubator at 37 degrees C and 5% CO2 with 95% humidity. The PDC lines were cultured according to standard operating procedures established by the NCI PDMR (https://pdmr.cancer.gov). Briefly all PDCs were thawed and cultured in Matrigel-coated flasks prepared with a working solution of 1X Ham's F-12 nutrient mix, without supplementation (Invitrogen, Waltham, MA, cat. 11765054), 100 U/mL penicillin-streptomycin (Invitrogen, cat. 15140122), and 2.5% Matrigel (Corning Inc., Corning, NY, cat. 354248) for the first three passages. […]
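Also: spheroids exposed to agents for seven days before readout.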
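For viability, T/C in this document: 100% = DMSO vehicle control wells as normalization base.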

SMILES | viability, T/C (compound 0.00316 µM) | viability, T/C (compound 0.01 µM) | viability, T/C (compound 0.0316 µM) | viability, T/C (compound 0.1 µM) | IC50 (curve of compound) | viability, T/C (compound 0.316 µM) | viability, T/C (compound 1 µM) | viability, T/C (compound 0.00949 µM) | viability, T/C (compound 0.03 µM) | viability, T/C (compound 0.0949 µM) | viability, T/C (compound 0.3 µM) | also measured
CC(C)CC(NC(=O)C(Cc1ccccc1)NC(=O)c1cnccn1)B(O)O (configuration not stated) | 0.63% and 0.15% | 0.17% | 0.14% and 0.17% | 0.21% and 0.29% | < 0.316 nM | – | – | – | – | – | – | viability, T/C (compound 0.000316 µM): 11.1% and 6.84%; viability, T/C (compound 0.001 µM): 1.41% and 0.31%
CC(C)CC(NC(=O)CNC(=O)c1cc(Cl)ccc1Cl)B1OC(=O)CC(CC(=O)O)(C(=O)O)O1 (configuration not stated) | 68.4% and 56.8% | 21.7% and 15.9% | 3.57% and 2.13% | 0.76% and 0.44% | 5.04 nM and 3.85 nM | – | – | – | – | – | – | viability, T/C (compound 0.000316 µM): 102% and 100%; viability, T/C (compound 0.001 µM): 104% and 92.3%
CC(C)c1c(-c2ccccc2)nc2c(C#N)c[nH]n2c1=O | – | – | 106% and 93% | 91.8% and 84.6% | > 10000 nM | 84.1% and 102% | 100% and 86.9% | – | – | – | – | viability, T/C (compound 3.16 µM): 89.7% and 91%; viability, T/C (compound 10 µM): 75.7% and 79.8%
CC1(C)CCC(CN2CCN(c3ccc(C(=O)NS(=O)(=O)c4ccc(NCC5CCOCC5)c([N+](=O)[O-])c4)c(Oc4cnc5[nH]ccc5c4)c3)CC2)=C(c2ccc(Cl)cc2)C1 | – | – | 87% and 94.2% | 98.5% and 93.8% | 2410 nM and 3200 nM | 91.7% and 89.7% | 96.8% and 84.2% | – | – | – | – | viability, T/C (compound 3.16 µM): 36.5% and 50.3%; viability, T/C (compound 10 µM): 3.78% and 4.3%
CC1COCCN1c1cc(-c2ccnn2C)c2ccnc(-c3ccn[nH]3)c2n1 (configuration not stated) | 66.6% and 63.7% | 59.2% and 61.9% | 47.8% and 42.4% | 39.4% and 29.3% | 29 nM and 19.7 nM | 28.8% and 27.1% | 14% and 10.7% | – | – | – | – | –
CC1COCCN1c1cc(C2(S(C)(=N)=O)CC2)nc(-c2ccnc3[nH]ccc23)n1 (configuration not stated) | – | – | 105% and 90.8% | 101% and 105% | 4640 nM and 4620 nM | 104% and 100% | 87.4% and 81.6% | – | – | – | – | viability, T/C (compound 3.16 µM): 63% and 65.7%; viability, T/C (compound 10 µM): 24.9% and 20.9%
CCN(c1cc(-c2ccc(CN3CCOCC3)cc2)cc(C(=O)NCc2c(C)cc(C)[nH]c2=O)c1C)C1CCOCC1 | – | – | – | – | > 3000 nM | – | – | 119% and 92.8% | 97.8% and 90.4% | 101% and 97.6% | 101% and 90.8% | viability, T/C (compound 0.949 µM): 105% and 96%; viability, T/C (compound 3 µM): 102% and 96.7%
CC[C@@]1(O)C(=O)OCc2c1cc1n(c2=O)Cc2cc3c(CN(C)C)c(O)ccc3nc2-1 | 96.5% and 94.7% | 92.4% and 88.5% | 65.7% and 67.3% | 44.6% and 40.1% | 75.4 nM and 66.7 nM | – | – | – | – | – | – | viability, T/C (compound 0.000316 µM): 111% and 107%; viability, T/C (compound 0.001 µM): 97% and 103%
CCc1c2c(nc3ccc(O)cc13)-c1cc3c(c(=O)n1C2)COC(=O)[C@]3(O)CC | – | – | – | – | < 0.949 nM and 0.999 nM | – | – | 21.1% and 17.5% | 12.4% and 14.2% | 9.01% and 6.61% | 4.04% and 3.45% | viability, T/C (compound 0.000949 µM): 46.8% and 51.2%; viability, T/C (compound 0.003 µM): 28.6% and 31%
COc1cc(C2c3cc4c(cc3C(OC3OC5COC(C)OC5C(O)C3O)C3COC(=O)C23)OCO4)cc(OC)c1O (configuration not stated) | – | – | – | – | > 3000 nM | – | – | 91.2% and 110% | 86.7% and 112% | 83% and 88.5% | 77% and 84.2% | viability, T/C (compound 0.949 µM): 75% and 81.7%; viability, T/C (compound 3 µM): 49.3% and 59.2%
COc1cc(Nc2ncc3c(n2)-c2ccc(Cl)cc2C(c2c(F)cccc2OC)=NC3)ccc1C(=O)O | 76.9% and 95.7% | 79.1% and 75.3% | 76.3% and 75.3% | 67.7% and 64.7% | 205 nM and 196 nM | 39.2% and 42.6% | 5.79% and 5.84% | – | – | – | – | –
COc1ccc([C@@H](O)c2cc(-c3ncnc4cc(N5CCOCC5)ccc34)c(F)cc2Cl)nn1 | – | – | 96.8% and 94.9% | 95.5% and 89% | 1400 nM and 1380 nM | 83.9% and 78.1% | 64.1% and 62.8% | – | – | – | – | viability, T/C (compound 3.16 µM): 20.1% and 24%; viability, T/C (compound 10 µM): 3.89% and 4.14%
Cn1ncnc1C1c2n[nH]c(=O)c3cc(F)cc(c23)NC1c1ccc(F)cc1 (configuration not stated) | 87.8% and 95.8% | 93.7% and 109% | 93.5% and 93.3% | 79.6% and 91.1% | > 100 nM | – | – | – | – | – | – | viability, T/C (compound 0.000316 µM): 97.7% and 106%; viability, T/C (compound 0.001 µM): 104% and 106%
NC1CC1c1ccc(-c2cccc(O)c2)cc1 (configuration not stated) | – | – | – | 94.9% and 98.4% | – | – | – | – | – | – | – | viability, T/C (compound 3.16 µM): 99.9% [middle of 24 runs]; IC50 (compound alone, run of 02/21/2022): > 10000 nM
NC1CCC(NC2CC2c2ccccc2)CC1 (configuration not stated) | – | – | – | – | – | 99.4% and 101% and 110% | – | – | – | – | – | IC50 (compound alone, run of 02/15/2022): > 10000 nM
NS(=O)(=O)OCC1CC(n2ccc3c(NC4CCc5ccccc54)ncnc32)CC1O (configuration not stated) | – | – | – | – | 590 nM and 545 nM | – | – | 103% and 93.6% | 110% and 98.5% | 102% and 92.3% | 74% and 62.3% | viability, T/C (compound 0.949 µM): 33.3% and 38.5%; viability, T/C (compound 3 µM): 15.6% and 20.2%
Nc1ccccc1NC(=O)c1ccc(CNC(=O)OCc2cccnc2)cc1 | – | – | – | – | 151 nM and 132 nM | – | – | 100% and 75.3% | 101% and 76.5% | 68.7% and 63.2% | 21.4% and 17.3% | viability, T/C (compound 0.949 µM): 1.46% and 1.45%; viability, T/C (compound 3 µM): 0.48% and 0.84%
Nc1ccn(C2OC(CO)C(O)C2(F)F)c(=O)n1 (configuration not stated) | – | – | – | – | 2.05 nM and 1.79 nM | – | – | 35.1% and 35% | 37.9% and 33.9% | 36.3% and 30.8% | 32.1% and 25.6% | viability, T/C (compound 0.000949 µM): 64.8% and 61.2%; viability, T/C (compound 0.003 µM): 42.9% and 39.4%
Nc1ncn(C2CC(O)C(CO)O2)c(=O)n1 (configuration not stated) | 85% and 110% | 101% and 104% | 88.3% and 95.8% | 91.7% and 91.4% | > 1000 nM | 83.5% and 92.4% | 79.6% and 91.2% | – | – | – | – | –
Nc1ncn(C2CC(O)C(CO)S2)c(=O)n1 (configuration not stated) | – | – | – | – | > 300 nM | – | – | 95.8% and 96.4% | 112% and 99.8% | 111% and 96.1% | 84.7% and 78.1% | viability, T/C (compound 0.000949 µM): 91.3% and 115%; viability, T/C (compound 0.003 µM): 118% and 98.8%
O=C(C=Cc1cccc(S(=O)(=O)Nc2ccccc2)c1)NO | – | – | – | – | 83.8 nM and 82.8 nM | – | – | 94.2% and 95.1% | 90.9% and 90.4% | 43.7% and 43.1% | 11.7% and 12.1% | viability, T/C (compound 0.949 µM): 1.64% and 1.58%; viability, T/C (compound 3 µM): 0.25% and 0.32%
O=C(C=Cn1cnc(-c2cc(C(F)(F)F)cc(C(F)(F)F)c2)n1)NNc1cnccn1 | 53.4% and 53.9% | 51.9% and 52.1% | 43.6% and 42.3% | 38% and 35.1% | 8.72 nM and 8.71 nM | 35.2% and 29.4% | 30.5% and 24.9% | – | – | – | – | –
O=C(c1cc(Cc2n[nH]c(=O)c3ccccc23)ccc1F)N1CCN(C(=O)C2CC2)CC1 | – | – | 84.5% and 107% | 97.1% and 103% | > 10000 nM | 86.5% and 98.2% | 93.8% and 106% | – | – | – | – | viability, T/C (compound 3.16 µM): 85.7% and 85.5%; viability, T/C (compound 10 µM): 65.5% and 74.2%
